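48-hour exposure; five concentrations; linearly interpolated endpoints. TGI is the concentration that stops growth completely.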
Tests used:
Assay in all cases: growth of human tumour cells (NCI), 48 h
RPMI-8226 leukemia = test system: RPMI-8226 leukemia
OVCAR-8 ovarian = test system: OVCAR-8 ovarian
SNB-75 CNS = test system: SNB-75 CNS
RXF 393 renal = test system: RXF 393 renal
DU-145 prostate = test system: DU-145 prostate
EKVX NSCLC = test system: EKVX NSCLC
CCRF-CEM leukemia = test system: CCRF-CEM leukemia
MCF7 breast = test system: MCF7 breast
MDA-N = test system: MDA-N
NCI-H23 lung = test system: NCI-H23 lung
UO-31 renal = test system: UO-31 renal
HT29 colon = test system: HT29 colon
HOP-92 NSCLC = test system: HOP-92 NSCLC
COLO 205 colon = test system: COLO 205 colon
NCI-H460 lung = test system: NCI-H460 lung
NCI-H522 lung = test system: NCI-H522 lung
SF-539 CNS = test system: SF-539 CNS
A549 NSCLC = test system: A549 NSCLC
ACHN renal = test system: ACHN renal
MDA-MB-435 = test system: MDA-MB-435
LOX IMVI melanoma = test system: LOX IMVI melanoma
UACC-257 melanoma = test system: UACC-257 melanoma
OVCAR-5 ovarian = test system: OVCAR-5 ovarian
UACC-62 melanoma = test system: UACC-62 melanoma
SK-MEL-28 melanoma = test system: SK-MEL-28 melanoma
U251 CNS = test system: U251 CNS
HCC-2998 colon = test system: HCC-2998 colon
SF-295 CNS = test system: SF-295 CNS
SF-268 CNS = test system: SF-268 CNS
IGROV1 ovarian = test system: IGROV1 ovarian
K-562 leukemia = test system: K-562 leukemia
MOLT-4 leukemia = test system: MOLT-4 leukemia
SK-MEL-5 melanoma = test system: SK-MEL-5 melanoma
OVCAR-3 ovarian = test system: OVCAR-3 ovarian
A498 renal = test system: A498 renal
HOP-62 NSCLC = test system: HOP-62 NSCLC
SN12C renal = test system: SN12C renal
TK-10 renal = test system: TK-10 renal
786-0 renal = test system: 786-0 renal
NCI/ADR-RES ovarian = test system: NCI/ADR-RES ovarian
SR leukemia = test system: SR leukemia
NCI-H226 lung = test system: NCI-H226 lung
HCT-116 colon = test system: HCT-116 colon
CAKI-1 renal = test system: CAKI-1 renal
HL-60(TB) leukemia = test system: HL-60(TB) leukemia
T-47D breast = test system: T-47D breast
HCT-15 colon = test system: HCT-15 colon
SW-620 colon = test system: SW-620 colon
SK-OV-3 ovarian = test system: SK-OV-3 ovarian
M14 melanoma = test system: M14 melanoma
HS 578T breast = test system: HS 578T breast
PC-3 prostate = test system: PC-3 prostate
MDA-MB-231 breast = test system: MDA-MB-231 breast
OVCAR-4 ovarian = test system: OVCAR-4 ovarian
KM12 colon = test system: KM12 colon
MALME-3M melanoma = test system: MALME-3M melanoma
SNB-19 CNS = test system: SNB-19 CNS
SK-MEL-2 melanoma = test system: SK-MEL-2 melanoma
BT-549 breast = test system: BT-549 breast

Measured: TGI

COCc1cc2c(cc1/C(=C/[N+](=O)[O-])CS(=O)(=O)c1ccccc1)OCO2
not listed: PC-3 prostate | MDA-MB-231 breast | OVCAR-4 ovarian | KM12 colon | MALME-3M melanoma | SNB-19 CNS | SK-MEL-2 melanoma | BT-549 breast
> 100 µM: all other assays above

CCCCOC(=O)NC(Nc1ccc(S(=O)(=O)Nc2ccc(OC)nn2)cc1)(C(F)(F)F)C(F)(F)F
not listed: SNB-75 CNS | NCI-H522 lung | HS 578T breast | SK-MEL-2 melanoma | BT-549 breast
> 100 µM: all other assays above

CC(=O)OC/C=C/Cn1ncc(=O)[nH]c1=O
not listed: CCRF-CEM leukemia | NCI-H23 lung | UACC-257 melanoma | UACC-62 melanoma | SF-295 CNS | TK-10 renal | 786-0 renal | SR leukemia | HCT-116 colon | SK-OV-3 ovarian | OVCAR-4 ovarian | BT-549 breast
> 100 µM: all other assays above

COc1cc(=O)n2c3ccccc3n(C)c2c1C#N
not listed: LOX IMVI melanoma | SK-MEL-28 melanoma | T-47D breast
> 100 µM: all other assays above
